Experimental data published in patent US6319929A, “Suksdorfin analogs, compositions thereof, and methods for making and using thereof” (priority 1998, dated 2001).
pEC50, pIC50: −log10 of the molar value. Read-outs that look alike come from different tables or passages of the source.

Columns and labels:
[1] = test system: HIV-1 replication in H9 cells; assay: HIV-1 replication inhibition in acutely infected H9 lymphocytes (p24 antigen ELISA); assay type: cell-based, HIV-1 (IIIB strain); settings: for anti-HIV activity in H9 cells (in words) / EC50: acutely infected H9 cells
Experimental: (§1) HIV inhibition assay. The HIV inhibition was measured as described herein. Briefly, H9 cells, a T cell line, (3.5×10^6 cells/ml) were incubated in the presence or absence of HIV-1 (IIIB strain, 0.01-0.1 TCID50 /cell) for 1 hour at 37° C. Cells were washed thoroughly and resuspended at a final concentration of 2×10^5 cells/ml in the presence or absence of compound. After incubation for 3-4 days at 37° C., the cell density of uninfected cultures was determined by cell count to assess toxicity of the drug. An aliquot of each cell-free supernatant was assayed by p24 antigen ELISA to quantitate the amount of HIV-1 present in the infected cultures. Test compounds were considered to be active at a particular concentration if p24 antigen levels were less than 70% of infected, untreated controls and were nontoxic to uninfected H9 cells.
(§2) HIV Growth Inhibition Assay: The T cell line, H9, and the promonocytic cell line, U937, were maintained separately in continuous culture with complete medium (RPMI 1640 and […] fetal calf serum (FCS) at 5% CO2 and 37° C. Cell lines were used in experiments only when in log phase of growth; whereas, uninfected peripheral blood mononuclear cells (PBMCs) were first stimulated with PHA (1 μg/ml) for 3 days. All cell targets were incubated with HIV-1 (IIIB isolate, TCID50 10 ^4 IU/mi, at a multiplicity of infection of 0.1-0.01 IU/cell) for 1 hour at 37° C. and 5% CO2. The cell lines and PBMCs were washed thoroughly to remove unabsorbed virions and resuspended at 4×10^5 cells/ml in complete medium or complete medium with 10% v/v interleukin […] IL-2, respectively. Aliquots ( ml) were placed in wells of 24-well culture plates containing an equal volume of test compound (diluted in the appropriate culture medium). After incubation for 4 days at 37° C., cell density of uninfected cultures was determined by counting cells in a Coulter counter to assess toxicity of the test compound. A p24 antigen ELISA assay was used to determine the level of virus released in the medium of the HIV-infected cultures. The p24 antigen assay uses a HIV-1 anti-p24 specific monoclonal antibody as the capture antibody coated-on 96-well plates. Following a sample incubation period, rabbit serum containing antibodies for HIV-1 p24 is used to tag any p24 "captured" onto the microtiter well surface. Peroxidase conjugated goat anti-rabbit serum is then used to tag HIV-1 p24 specific rabbit antibodies which have complexed with captured p24. […] The cut-off for the p24 ELISA assay is 12. pg/ml. P24 in the culture medium was quantitated against a standard curve containing known amounts of p24. The effective (EC50) and inhibitory (IC50) concentrations (for anti-HIV activity and cytotoxicity, respectively) were determined graphically. Both the EC50 and IC50 values were calculated by plotting drug concentration versus percent inhibition, and then identifying a 50% inhibition value from the graph.

[2] = test system: uninfected H9 cells; assay: Toxicity to uninfected H9 cells (cell growth); assay type: cell-based; settings: for pIC50 / IC50: Homo sapiens; for IC50: concentration which inhibits uninfected cell growth by 50%
Experimental: as §1, §2

[3] = test system: chronically HIV-1 infected ACH-2 cells; assay: Virus expression from chronically HIV-1 infected T cell line ACH-2 (p24 antigen ELISA); assay type: cell-based; settings: ACH-2 cells; 4320 min
Experimental: Effects of suksdorfin analogs on Chronically HIV-1 infected cells. The experimental design is as follows: The phorbol ester, PMA (10^-8 M) and various concentrations of suksdorfin were either added or not added to both the chronically HIV-1 infected T cell line (ACH-2) and to the chronically HIV-1 infected monocytic cell line (U1). Cell-free supernatant was collected 72 hours post culture for p24 antigen ELISA.
Results (Table 11) from adding compound 16 to the chronically HIV-infected T cell line, ACH-2, according to methods in above examples. ACH-2 are a chronically HIV-1 infected T cell line. It was derived from A3.01 cells which is a subclone of the CEM cell line. The data below indicates the following points:
Chronically HIV-1 infected cell lines. HIV-1 chronically infected T cell line, ACH-2^12, and HIV-1 chronically infected promonocytic cell line, U1 13, were continuously maintained in RPMI 1640 with 10% fetal calf serum (FCS). For experiments, the cell lines were only used in the […] of growth. Cells (0.5×10^6 cells/well) and either various concentrations of suksdorfin or medium alone were added to 24-well plates in the presence or absence of PMA (10^-8 M). After 72 hours at 37° C. and 5% CO2, an aliquot of the cell-free supernatants were collected and analyzed for p24 antigen by ELISA (see below for details of p24 antigen ELISA).

[4] = Human immunodeficiency virus 1, H9, Table 3, H9 lymphocytes, read-out: EC50
[5] = H9, Table 3, H9 lymphocytes, read-out: IC50
[6] = Table 14, concentration which inhibits viral replication by 50%, Inactive = No suppression of HIV-1 replication in H9 cells
[7] = concentration which inhibits viral replication by 50%, Inactive = No suppression of HIV-1 replication in H9 cells
[8] = Human immunodeficiency virus 1, H9, acutely infected H9 cells, concentration which inhibits viral replication by 50%, Inactive = No suppression of HIV-1 replication in H9 cells
[9] = Human immunodeficiency virus 1, H9, read-out: IC50 (μM)^b
[10] = IC50 for cell growth inhibition divided by EC50 for HIV inhibition, H9
[11] = H9, concentration which inhibits uninfected cell growth by 50%
[12] = H9, read-out: IC50 (μM)^a, Table 14
[13] = Human immunodeficiency virus 1, H9, Table 17, acutely infected H9 lymphocytes, read-out: EC50
[14] = H9, Table 17, uninfected H9 cell growth, read-out: IC50
[15] = Human immunodeficiency virus 1, H9, acutely infected H9 cells, concentration which inhibits viral replication by 50%, Inactive = No suppression of HIV-1 replication in H9 cells, read-out: EC50
[16] = Human immunodeficiency virus 1, Table 14, concentration which inhibits viral replication by 50%, Inactive = No suppression of HIV-1 replication in H9 cells, read-out: IC50 (μM)^b
[17] = H9, Table 14, read-out: IC50 (μM)^a
[18] = H9, concentration which inhibits uninfected cell growth by 50%, read-out: IC50

Compound: CCC(C)C(=O)OC1C(O)c2c(ccc3ccc(=O)oc23)OC1(C)C (centres unmarked) [8 and 9]
- pEC50 [1, 4]: < 4.24

Compound: CCC(C)C(=O)OC1c2c(ccc3ccc(=O)oc23)OC(C)(C)C1OC(=O)C(C)CC (centres unmarked) [14 and 15]
- pEC50 [1, 4]: 5.15

Compound: CC(C)CC(=O)O[C@@H]1[C@@H](OC(=O)c2cccc(Cl)c2)c2c(ccc3ccc(=O)oc23)OC1(C)C (relative stereo) [Compound 28]
- pEC50 [1, 4]: 5.08
- Therapeutic Index ([1]; Table 3, H9 lymphocytes): 1.2
- pIC50 [2, 5]: 5.00

Compound: COc1cc2cc(Oc3ccc4ccc(=O)oc4c3)c(=O)oc2cc1O [Daphnoretin, daphnoretin, reference compound]
- IC50 (μM)^b [1, 6]: Inactive
- anti-HIV activity in H9 cells (in words) [1]: no activity
- EC50 [1, 7]: Inactive

Compound: C/C=C(/C)C(=O)O[C@@H]1c2c(ccc3ccc(=O)oc23)OC(C)(C)[C@@H]1OC(C)=O [Pteryxin, pteryxin, reference compound]
- pEC50 [1, 8]: 5.34
- IC50 [1, 9]: 4.6 µM
- Therapeutic Index [1, 10]: > 3.7
- Therapeutic Index ([1]; Table 14): > 3.7
- anti-HIV activity in H9 cells (in words) [1]: slightly reduced anti-HIV-l activity
- anti-HIV activity in H9 cells (in words) ([1]; listed as pteryxn): slightly reduced anti-HIV-1 activity
- increase of toxicity on replacing 4'-isovaleryl by angeloyl (versus suksdorfin) ([2]; H9 cells): 5 fold
- pIC50 [2, 11]: < 4.98
- IC50 [2, 12]: > 10.4 µM

Compound: CC1(C)Oc2ccc3ccc(=O)oc3c2[C@@H](OC(=O)[C@@]23CC[C@@](C)(C(=O)O2)C3(C)C)[C@@H]1OC(=O)[C@@]12CC[C@@](C)(C(=O)O1)C2(C)C [Compound 45, 3', 4'-Di-O-(-)-Camphanoyl-(+)-trans-Khellactone]
- pEC50 [1, 4]: 4.49
- pEC50 [1, 13]: 4.49
- Therapeutic Index ([1]; Table 3, H9 lymphocytes): > 1
- Therapeutic Index ([1]; Table 17, H9): > 1
- anti-HIV activity in H9 cells (in words) [1]: much less activity than that of compound 16
- anti-HIV activity in H9 cells (in words) ([1]; listed as 5): much less anti-HIV activity than 2
- pIC50 [2, 5]: > 4.49
- pIC50 [2, 14]: < 4.49

Compound: CC(=O)OC1Cc2c(ccc3ccc(=O)oc23)OC1(C)C (racemic) [Compound 25]
- pEC50 [1, 4]: < 4.16

Compound: CC1(C)O[C@H]1COc1c2ccoc2cc2oc(=O)ccc12 [Oxypeucedanin, oxypeucedanin, reference compound]
- pEC50 [1, 15]: 4.50
- IC50 [1, 16]: 31.5 µM
- Therapeutic Index [1, 10]: > 2.2
- Therapeutic Index ([1]; Table 14): > 2.2
- IC50 [2, 17]: > 69.9 µM
- pIC50 [2, 18]: < 4.16

Compound: CO[C@@H]1[C@@H](OC(=O)c2cccc(Cl)c2)c2c(ccc3ccc(=O)oc23)OC1(C)C (relative stereo) [Compound 29]
- pEC50 [1, 4]: 3.62
- Therapeutic Index ([1]; Table 3, H9 lymphocytes): > 0.2
- pIC50 [2, 5]: < 4.32

Compound: CC(=O)O[C@@H]1c2c(ccc3ccc(=O)oc23)OC(C)(C)[C@@H]1OC(C)=O (relative stereo) [Compound 12]
- pEC50 [1, 4]: < 3.54

Compound: CCC(C)C(=O)OC1c2c(ccc3ccc(=O)oc23)OC(C)(C)C1O (centres unmarked) [10 and 11]
- pEC50 [1, 4]: < 4.24

Compound: CCCCCCCCCCCCCC(=O)O[C@@H]1[C@@H](C)[C@@]2(O)[C@@H](C=C(CO)C[C@]3(O)C(=O)C(C)=C[C@@H]23)[C@@H]2C(C)(C)[C@]12OC(C)=O [PMA, phorbol 12-myristate 13-acetate, reference compound]
- induction of virus replication compared to medium alone [3]: 27 fold

Compound: CC(C)=CCOc1c2ccoc2cc2oc(=O)ccc12 [Isoimperatorin, isoimperatorin, reference compound]
- pEC50 [1, 15]: 4.39
- IC50 [1, 16]: 40.7 µM
- Therapeutic Index [1, 10]: > 4.6
- Therapeutic Index ([1]; Table 14): > 4.6
- IC50 [2, 17]: > 185 µM
- pIC50 [2, 18]: < 3.73

Compound: CC1(C)Oc2ccc3ccc(=O)oc3c2[C@H](OC(=O)[C@@]23CC[C@@](C)(C(=O)O2)C3(C)C)[C@@H]1OC(=O)[C@@]12CC[C@@](C)(C(=O)O1)C2(C)C [Compound 17, 3',4'-Di-O-(-)-Camphanoyl-(-)-cis-Khellactone]
- pEC50 [1, 4]: 4.29
- pEC50 [1, 13]: 4.29
- Therapeutic Index [1, 10]: > 1.3
- Therapeutic Index ([1]; Table 3, H9 lymphocytes): > 33.3
- Therapeutic Index ([1]; Table 17, H9): > 33.3
- anti-HIV activity in H9 cells (in words) [1]: much less activity than that of compound 16
- anti-HIV activity in H9 cells (in words) ([1]; listed as 3): much less anti-HIV activity than 2
- pIC50 [2, 5]: 2.77
- pIC50 [2, 14]: 2.77

Compound: CC(C)CC(=O)OC1Cc2c(ccc3ccc(=O)oc23)OC1(C)C (racemic) [Compound 26]
- pEC50 [1, 4]: < 4.92

Compound: CC(C)(O[C@@H]1O[C@H](CO)[C@@H](O)[C@H](O)[C@H]1O)[C@H]1Cc2cc3ccc(=O)oc3cc2O1 [Nodakenin, nodakenin, reference compound]
- IC50 (μM)^b [1, 6]: Inactive
- EC50 [1, 7]: Inactive

Compound: acetylnodakenin [reference compound]
- IC50 (μM)^b [1, 6]: Inactive
- EC50 [1, 7]: Inactive

Compound: CC1(C)Oc2ccc3ccc(=O)oc3c2[C@H](OC(=O)[C@@]23CC[C@@](C)(C(=O)O2)C3(C)C)[C@H]1OC(=O)[C@@]12CC[C@@](C)(C(=O)O1)C2(C)C [Compound 44, 31'4'-Di-O-(-)-Camphanoyl-(-)-trans-Khellactone]
- Therapeutic Index ([1]; Table 3, H9 lymphocytes): > 1
- Therapeutic Index ([1]; Table 14): 1.3
- Therapeutic Index ([1]; Table 17, H9): > 1
- anti-HIV activity in H9 cells (in words) [1]: much less activity than that of compound 16
- anti-HIV activity in H9 cells (in words) ([1]; listed as 4): much less anti-HIV activity than 2

Compound: CC(C)(O)[C@H]1Cc2cc3ccc(=O)oc3cc2O1 [Nodakenetin, nodakenetin, reference compound]
- IC50 (μM)^b [1, 6]: Inactive
- EC50 [1, 7]: Inactive

Compound: CC(C)=CCOc1c2occc2cc2ccc(=O)oc12 [Imperatorin, imperatorin, reference compound]
- pEC50 [1, 8]: 4.95
- IC50 [1, 9]: 11.1 µM
- Therapeutic Index [1, 10]: > 6.7
- Therapeutic Index ([1]; Table 14): > 6.7
- pIC50 [2, 11]: < 4.13
- IC50 [2, 12]: > 74.1 µM

Compound: CC1(C)Oc2ccc3ccc(=O)oc3c2[C@H](OC(=O)c2cccc(Cl)c2)[C@H]1OCc1ccccc1 (relative stereo) [Compound 30]
- pEC50 [1, 4]: 5.21

Compound: CC(C)CC(=O)O[C@@H]1c2c(ccc3ccc(=O)oc23)OC(C)(C)[C@@H]1OC(=O)CC(C)C (relative stereo) [Compound 13]
- pEC50 ([1]; Human immunodeficiency virus 1, H9, Table 3, H9 lymphocytes): < 3.63

Compound: CC(=O)O[C@@H]1[C@@H](OC(=O)c2cccc(Cl)c2)c2c(ccc3ccc(=O)oc23)OC1(C)C (relative stereo) [Compound 27]
- pEC50 [1, 4]: < 4.35
